Data set [1] deals with ethanol-induced lesions of the mucous membrane of the stomach. The data set can be described thus: Ethanol test (mucosa-protective activity). The format is in vivo, male rats. The following applies: rats; oral, 30 minutes prior to absolute ethanol (1 ml per rat); dosage reducing by 50% the number of lesions vs control; read-out: Ethanol Test ID 50. As to the method:
The experimental procedure described hereinafter has been used to determine the mucosa-protective property:
The oral administration of absolute ethanol to male rats in a dosage of 1 ml per rat leads within 1 hour to bloody lesions of the mucous membrane of the stomach. Various dosages of the substances to be tested (suspended in 0.125% carboxymethylcellulose) or of the vehicle alone (control) are administered to the rats orally (1 ml per rat) 30 minutes prior to the treatment with ethanol. One hour after the administration of the ethanol the animals are sacrificed, their stomachs are examined for the presence of lesions, and the number and size of such lesions are mentioned. The ID50 is that dosage of a test substance which reduces by 50% the number of lesions in comparison to the control group.
(§1) In the following Table there are given for a series of representative compounds of formula I and for two compounds of formula II the results of the testing with respect to their mucosa-protective activity ("ethanol test") and to their gastric acid secretion-inhibiting activity. Moreover, this Table contains data concerning the acute toxicity (LD50 in the case of single oral administration to mice).

The test system of data set [2] is gastric acid secretion. The data set can be described thus: Gastric acid secretion-inhibiting activity (pylorus ligation, Shay et al.). The format is in vivo, male rats. Conditions: Rattus norvegicus, 5 h; pylorus-ligated rats; intraduodenal; five hours after ligation; dosage giving 50% decrease of the secretion vs control; read-out: Gastric acid secretion-inhibition ID 50. As for the experimental part:
The test procedure described hereinafter was used to determine the gastric acid secretion-inhibiting activity:
The pylorus of male rats is ligated under slight ether narcosis in accordance with the procedure described by Shay et al. in Gastroenterology 5, 43 (1945). The substances to be tested, suspended in 0.5% carboxymethylcellulose, are administered intraduodenally. Control animals are treated only with the vehicle. Five hours after the ligation the animals are sacrificed, the volume and acidity of their gastric fluid are determined, and the values obtained are compared with those of control animals. The ID50 is that dosage of a test substance which brings about a 50% decrease of the secretion in comparison to the control animals.
as §1

Data set [3] in a line: Acute toxicity (single oral administration to mice). Conditions: mouse, in vivo, read-out: Toxicity LD 50.
From the text: Representative compounds of formulae I and II have been investigated with respect to their mucosa-protective and gastric acid secretion-inhibiting properties as well as to their toxicity.
as §1

Consider `COc1cccc(/C=C/C(=O)/C=C/C(=O)O)c1` [A, (E,E)6-(3-Methoxyphenyl)-4-oxo-2,5-hexadienoic acid], for which the figures for the ED50 in data set [1] and in data set [2] were 0.8 mg/kg and 9 mg/kg, respectively. The LD50 in data set [3] lay within 312 to 625 mg/kg.

For the compound `COc1ccc(/C=C/C(=O)/C=C/C(=O)O)cc1` [B, (E,E)6-(4-Methoxyphenyl)-4-oxo-2,5-hexadienoic acid], in data set [1], the ED50 stood at 0.7 mg/kg. Besides, the LD50 in data set [3] was 312 to 625 mg/kg.

In the case of `COC(=O)/C=C\C(=O)/C=C/c1ccc(OC)cc1` [C, Methyl (2Z,5E)6-(4-methoxyphenyl)-4-oxo-2,5-hexadienoate], the ED50 in data set [1] came to 1 mg/kg. Also, the LD50 in data set [3] is 625 to 1250 mg/kg.

Regarding `COc1ccc(/C=C/C(=O)C#CC(=O)O)cc1` [D, (E)6-(4-Methoxyphenyl)-4-oxo-5-hexen-2-ynoic acid], the ED50 in data set [1] worked out at 0.5 mg/kg. Also, the LD50 in data set [3] was in the range of 500 to 1000 mg/kg.

Turning to `O=C(O)/C=C/C(=O)/C=C/c1ccc(F)cc1` [E, (E,E)6-(4-Fluorophenyl)-4-oxo-2,5-hexadienoic acid], the ED50 in data set [1] worked out at 1.9 mg/kg. In addition, the LD50 in data set [3] fell in the range of 312 to 625 mg/kg.

For `COc1ccc(/C=C/C(=O)/C=C\C(=O)O)cc1` [F, (2Z,5E)6-(4-Methoxyphenyl)-4-oxo-2,5-hexadienoic acid], in data set [1], the ED50 stood at 0.7 mg/kg. Also, the LD50 in data set [3] fell in the range of 156 to 312 mg/kg.

Regarding `COCCOCCOC(=O)/C=C/C(=O)/C=C/c1cccc(OC)c1` [G, 2(2-Methoxyethoxy)ethyl (E,E)6-(3-methoxyphenyl)-4-oxo-2,5-hexadienoate], the ED50 in data set [1] was found to be 2.7 mg/kg. The LD50 in data set [3] fell in the range of 500 to 1000 mg/kg.

On to `COCCOCCOC(=O)C#CC(=O)/C=C/c1ccc(OC)cc1` [H, 2(2-Methoxyethoxy)ethyl (E)6-(4-methoxyphenyl)-4-oxo-5-hexen-2-ynoate], for which the ED50 in data set [1] turned out to be 2.7 mg/kg. Also, the LD50 in data set [3] is 2500 to 5000 mg/kg.

With `COC(=O)C#CC(O)/C=C/c1ccc(OC)cc1` (stereo not drawn) [I, Methyl (E)4-hydroxy-6-(4-methoxyphenyl)-5-hexen-2-ynoate], the ED50 in data set [1] amounted to 2.1 mg/kg. Besides, in data set [3], the LD50 lay within 1000 to 2000 mg/kg.

In the case of `COCCOCCOC(=O)C#CC(O)/C=C/c1ccc(OC)cc1` (stereo not drawn) [J, 2(2-Methoxyethoxy)ethyl (E)4-hydroxy-6-(4-methoxy-phenyl)-5-hexen-2-ynoate], the ED50 in data set [1] was found to be 3.4 mg/kg. Also, the LD50 in data set [3] was over 4000 mg/kg.

Values taken from patent US4927958A, “Styryl ketones” (Hoffmann-La Roche Inc., priority 1987, dated 1990).
